Measured values from article PMC7696940, “Effects of Rationally Designed Physico-Chemical Variants of the Peptide PuroA on Biocidal Activity towards Bacterial and Mammalian Cells” (International Journal of Molecular Sciences, 2020).
Values after ≈ are worked out from the molar mass of the structure shown. Where no end group is shown, it is not given here.

Key:
[1] = test system: porcine trypsin and proteinase K; test: Proteases stability assay; assay type: in vitro ADME, porcine; Tritirachium album; conditions: 1000 µg peptide with 50 µg protease (20:1 w/w), porcine trypsin or proteinase K, PBS pH 7.4, 37 °C, 3 h; read-out activity of supernatant on E. coli and S. aureus; triplicate
Experimental: The effect of two well-studied proteases, porcine trypsin and proteinase K from Tritirachium album, on the activity of peptides was investigated as per Carmona et al.. Briefly, 1000 µg of a peptide was incubated with 50 µg of a protease (20:1 w/w) at 37 °C for 3 h in phosphate buffered saline PBS (pH 7.4). The enzyme activity was then terminated by heating (70 °C, 5 min) and the samples centrifuged at 12,000× g. The activity of the supernatant on E. coli and S. aureus was tested as above, in triplicate.

E. coli and S. aureus = test: Salt tolerance (MICs under 0-150 mM NaCl, summary); assay type: cell-based, Escherichia coli; Staphylococcus aureus; set-up: key: Up to 50 mM: no effects on antibacterial activity up to 50 mM NaCl but increase in the MICs for E. coli and S. aureus at 100 mM NaCl; Intolerant: not resistant to salt effects even at 50 mM NaCl; Up to 150 mM: no effects on antibacterial activity up to 150 mM NaCl; conditions: MICs for E. coli and S. aureus in MHB with 0, 50, 100 or 150 mM NaCl
Experimental: (§1) The activity of peptides was determined against the Gram-positive Staphylococcus aureus (ATCC 25923), and the Gram-negative Escherichia coli (ATCC 25922) and Pseudomonas aeruginosa (ATCC 9027) bacteria. Selected peptides were also tested against two clinical isolates of methicillin-resistant Staphylococcus aureus (MRSA), M173525 and M180920, kindly provided by Dr P. B. Ward (Microbiology Department, Austin and Repatriation Medical Centre, Heidelberg West, Victoria, Australia). The Minimum inhibitory concentration (MIC) of peptides was determined by the microtitre broth dilution method, as described in Phillips et al.. Briefly, bacteria were grown in Mueller-Hinton Broth (MHB) at 37 °C overnight with shaking (200 rpm). The cultures were adjusted to 0.5 McFarland turbidity standard (approximately 1 × 10^8 colony forming units (CFU)/mL), then diluted 1:100 in MHB (1 × 10^6 CFU/mL). A total of 75 μL of these suspensions were mixed with 25 μL of peptide solutions (final concentrations 250 to 0.5 μg/mL) and the microtitre plates incubated overnight at 37 °C. Positive growth controls (inoculum and MHB, with no peptide) and sterility controls (0.01% glacial acetic) were also included. Post-incubations, the absorbance of cultures at 595 nm was measured using a microplate reader (POLARstar Omega, Germany). […] To evaluate salt sensitivity of peptides up to physiological levels (150 mM NaCl), overnight cultures of S. aureus and E. coli adjusted to 0.5 McFarland turbidity standard were diluted 1:100 in MHB containing 0, 50, 100 or 150 mM NaCl, and the MICs of peptides determined as above. All tests were conducted in triplicate. The results are shown as the mode of values obtained.

HeLa cells = assay type: cell-based, human; conditions: MTT, 24 h, peptide up to 250 µg/mL; concentration causing 50% cell growth inhibition; mean of triplicate assays
Experimental: (§2) Cytotoxicity to human cervical carcinoma HeLa cells and mouse fibroblastic NIH-3T3 cells was determined using the MTT assay as per Scudiero et al. with minor modifications. The cells were maintained in Dulbecco’s Modified Eagle Medium (DMEM) with 10% foetal bovine serum (FBS) and 1% penicillin G in a humidified incubator (Heraeus Hera Cell incubator) at 37 °C with 5% CO2. They were seeded in 96-well microtiter plates at 1 × 10^4 cells/well and allowed to adhere for 24 h in the incubator. The medium was removed, and adherent cells were washed with PBS. Fresh media containing serially diluted peptides in PBS (final concentrations 4 to 250 µg/mL) were added and the cells incubated for 24 h. Cells without peptides were used as negative controls. Following incubations, the medium was removed, and adherent cells were washed with PBS. 150 µL of MTT (diluted to 0.33 mg/mL in DMEM) and the plates incubated for 3 h. The precipitated formazan was dissolved in 100 µL of DMSO and its absorbance measured at 570 nm. Cell viability was determined as: (OD570 nm peptide treated cells/(OD570 nm untreated cells) × 100. Positive cytotoxicity was defined as peptide concentration that causes 50% growth inhibition in a cell line (IC50). All tests were carried out in triplicate.

E. coli ATCC25922 = assay type: cell-based, Escherichia coli; conditions: MHB; for MIC E. coli, No NaCl: 0 mM NaCl; for MIC E. coli, No NaCl / MIC E. coli, With 50mM NaCl / MIC E. coli, With 100mM NaCl / MIC E. coli, With 150mM NaCl: triplicate, mode; for MIC E. coli ATCC25922: 37 °C overnight, A595, mode of three independent experiments
Experimental: as §1

P. aeruginosa ATCC9027 = assay type: cell-based, Pseudomonas aeruginosa; conditions: MHB, 37 °C overnight, A595; mode of three independent experiments
Experimental: as §1

C. albicans FRR 5580 = assay type: cell-based, Candida albicans; conditions: PDB, overnight; mode of three independent experiments
Experimental: The assay was carried out as per Alfred et al.. Candida albicans (FRR 5580) was grown in potato dextrose broth (PDB; Difco-BD, Bergen County, NJ, USA) overnight at 30 °C with shaking (200 rpm) until exponential phase, then adjusted to 0.5 McFarland turbidity standard (approximately 1 × 10^6 cells/mL) and diluted 1:200 with PDB to 0.5 − 2 × 10^3 cells/mL. Peptides in 25 μL volumes were mixed with 75 μL of the yeast suspensions. The controls were included as above. The plates were incubated overnight and absorbance was recorded. All the tests were conducted in triplicate.

NIH-3T3 cells = test: Cytotoxicity, MTT assay; assay type: cell-based, mouse; conditions: 24 h; for IC50 NIH-3T3: peptide up to 250 µg/mL, concentration causing 50% cell growth inhibition, mean of triplicate assays
Experimental: as §2

S. aureus ATCC25923 = assay type: cell-based, Staphylococcus aureus; conditions: MHB; for MIC S. aureus, No NaCl: 0 mM NaCl; for MIC S. aureus, No NaCl / MIC S. aureus, With 50mM NaCl / MIC S. aureus, With 100mM NaCl / MIC S. aureus, With 150mM NaCl: triplicate, mode; for MIC S. aureus ATCC25923: 37 °C overnight, A595, mode of three independent experiments
Experimental: as §1

Row | Compound | Protease Stability [1] | Salt Tolerance (E. coli and S. aureus) | IC50 HeLa (HeLa cells) | MIC E. coli, No NaCl (E. coli ATCC25922) | MIC E. coli, With 50mM NaCl (E. coli ATCC25922) | MIC E. coli, With 100mM NaCl (E. coli ATCC25922) | MIC E. coli, With 150mM NaCl (E. coli ATCC25922) | MIC E. coli ATCC25922 (E. coli ATCC25922) | MIC P. aeruginosa ATCC9027 (P. aeruginosa ATCC9027) | MIC C. albicans FRR 5580 (C. albicans FRR 5580) | IC50 NIH-3T3 (NIH-3T3 cells) | Cytotoxicity to NIH-3T3 mouse fibroblasts (in words) (NIH-3T3 cells; up to 250 µg/mL) | MIC S. aureus, No NaCl (S. aureus ATCC25923) | MIC S. aureus, With 50mM NaCl (S. aureus ATCC25923) | MIC S. aureus, With 100mM NaCl (S. aureus ATCC25923) | MIC S. aureus, With 150mM NaCl (S. aureus ATCC25923) | MIC S. aureus ATCC25923 (S. aureus ATCC25923)
1 | CC(C)[C@H](NC(=O)[C@@H]1CCCN1C(=O)[C@@H](N)Cc1ccccc1)C(=O)N[C@H](C(=O)N[C@@H](Cc1c[nH]c2ccccc12)C(=O)N[C@@H](CCCNC(=N)N)C(=O)N[C@@H](Cc1c[nH]c2ccccc12)C(=O)N[C@@H](Cc1c[nH]c2ccccc12)C(=O)N[C@@H](CCCCN)C(=O)N[C@@H](Cc1c[nH]c2ccccc12)C(=O)N[C@@H](Cc1c[nH]c2ccccc12)C(=O)N[C@@H](CCCCN)C(=O)NCC(=O)NCCCC[C@@H](NC(=O)CNC(=O)[C@H](CCCCN)NC(=O)[C@H](Cc1c[nH]c2ccccc12)NC(=O)[C@H](Cc1c[nH]c2ccccc12)NC(=O)[C@H](CCCCN)NC(=O)[C@H](Cc1c[nH]c2ccccc12)NC(=O)[C@H](Cc1c[nH]c2ccccc12)NC(=O)[C@H](CCCNC(=N)N)NC(=O)[C@H](Cc1c[nH]c2ccccc12)NC(=O)[C@@H](NC(=O)[C@@H](NC(=O)[C@@H]1CCCN1C(=O)[C@@H](N)Cc1ccccc1)C(C)C)[C@@H](C)O)C(N)=O)[C@@H](C)O [Di-PuroA] | Unstable | Intolerant | – | – | – | – | – | – | – | – | – | – | – | – | – | – | –
2 | CC(C)[C@H](NC(=O)[C@@H]1CCCN1C(=O)[C@@H](N)Cc1ccccc1)C(=O)N[C@H](C(=O)N[C@@H](Cc1c[nH]c2ccccc12)C(=O)N[C@@H](CCCNC(=N)N)C(=O)N[C@@H](Cc1c[nH]c2ccccc12)C(=O)N[C@@H](Cc1c[nH]c2ccccc12)C(=O)N[C@@H](CCCCN)C(=O)N[C@@H](Cc1c[nH]c2ccccc12)C(=O)N[C@@H](Cc1c[nH]c2ccccc12)C(=O)N[C@@H](CCCCN)C(=O)NCC(=O)O)[C@@H](C)O [PuroA-OH] | Unstable | Intolerant | >250 µg/mL | 32 µg/mL (≈ 17.2 µM) | 64 µg/mL (≈ 34.3 µM) | > 250 µg/mL | > 250 µg/mL | 32 µg/mL (≈ 17.2 µM) | 125 µg/mL (≈ 67.1 µM) | 250 µg/mL (≈ 134 µM) | >250 µg/mL | no cytotoxicity | 64 µg/mL (≈ 34.3 µM) | 125 µg/mL (≈ 67.1 µM) | > 250 µg/mL | > 250 µg/mL | 64 µg/mL (≈ 34.3 µM)
3 | RKRWWRWWKWWKR-NH2 [dP1, diastereomeric counterpart of P1] | – | Up to 150 mM | 125 µg/mL | 16 µg/mL | 16 µg/mL | 16 µg/mL | 16 µg/mL | – | 16 µg/mL | 64 µg/mL | 250 µg/mL | – | 16 µg/mL | 16 µg/mL | 16 µg/mL | 16 µg/mL | –
4 | RWWKWW-NH2 [Peptide R6] | Unstable | Intolerant | >250 µg/mL | 32 µg/mL | 64 µg/mL | 250 µg/mL | > 250 µg/mL | 32 µg/mL | 32 µg/mL | 64 µg/mL | 250 µg/mL | – | 16 µg/mL | 32 µg/mL | 250 µg/mL | > 250 µg/mL | 16 µg/mL
5 | RWWKWWK-NH2 [Peptide R7] | Unstable | Intolerant | >250 µg/mL | 8 µg/mL | 32 µg/mL | 250 µg/mL | > 250 µg/mL | 8 µg/mL | 32 µg/mL | 64 µg/mL | 250 µg/mL | – | 16 µg/mL | 32 µg/mL | 250 µg/mL | > 250 µg/mL | 16 µg/mL
6 | WWRWWKWW-NH2 [dWW, diastereomeric counterpart of WW] | – | Up to 150 mM | 125 µg/mL | 8 µg/mL | 8 µg/mL | 8 µg/mL | 8 µg/mL | 8 µg/mL | 32 µg/mL | 64 µg/mL | 250 µg/mL | – | 8 µg/mL | 8 µg/mL | 8 µg/mL | 8 µg/mL | 8 µg/mL
